Results published in US6194396A, “Benzimidazole compounds as bradykinin antagonists” (Fujisawa Pharmaceutical Co., Ltd., priority 1994, dated 2001).
Where a name gives a salt, the structure may show the parent alone.

Biological target: T1, Bradykinin receptor (Cavia porcellus, UniProt O70526)
T1 construct: The ileum was removed and homogenized in buffer; from tissue; host or cells: guinea pig ileum, crude membrane suspension (male Hartley strain, given 'Hartly' in the source)
T1 sequence (O70526 1-372): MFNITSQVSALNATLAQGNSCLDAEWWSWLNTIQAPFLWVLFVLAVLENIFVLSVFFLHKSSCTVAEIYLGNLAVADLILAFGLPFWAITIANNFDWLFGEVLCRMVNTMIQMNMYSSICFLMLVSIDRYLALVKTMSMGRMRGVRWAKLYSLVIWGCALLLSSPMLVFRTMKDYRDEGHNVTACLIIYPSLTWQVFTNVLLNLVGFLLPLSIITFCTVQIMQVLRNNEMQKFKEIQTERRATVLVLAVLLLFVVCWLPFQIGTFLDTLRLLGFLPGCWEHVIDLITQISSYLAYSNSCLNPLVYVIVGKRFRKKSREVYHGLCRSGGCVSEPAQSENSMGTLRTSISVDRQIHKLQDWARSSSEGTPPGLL
Assay: 3H-Bradykinin receptor binding (crude ileum membrane)
Set-up: species or system guinea pig (male Hartly strain)
Conditions: concentration: 1 × 10^-5 M; 0.06 nM 3H-Bradykinin; guinea pig ileum membrane; room temperature, 60 minutes
Procedure: ^3 H-Bradykinin receptor binding
(a) Crude ileum membrane preparation
Male Hartly strain guinea pigs were sacrificed by decapitation. The ileum was removed and homogenized in buffer (50 mM trimethylaminoethanesulfonic acid (TES), 1 mM 1,10-phenanthroline pH 6.8). The homogenate was centrifuged (1000 xg, 20 minutes) to remove tissue clumps and the supernatant was centrifuges (100,000 xg, 60 minutes) to yield a pellet. The pellet was resuspended in buffer (50 mM TES, 1 mM 1,10-phenanthroline,140 mg/l bacitracin, 1 mM dithiothreiol, 0.1% bovine serum albumin pH 6.8) and homogenized with a glass-teflon homogenizer to yield suspension which was referred to as crude membrane suspension. The obtained membrane suspension was stored at -80° C. until use.
(b) ^3 H-Bradykinin binding to the membrane
The frozen crude membrane suspension was thawed. In binding assays, ^3 H-Bradykinin (0.06 nM) and drug (1×10^-5 M) were incubated with 50 μl of the membrane suspension at room temperature for 60 minutes in a final volume of 250 μl. Separation of receptor-bound from free 3H-Bradykinin is achieved by immediate filtration under vacuum and washed three times with 5 ml of ice-cold buffer (50 mM Tris-HCl pH 7.5). Non-specific binding was defined as binding in the presence of 0.1 μM Bradykinin. The radioactivity retained on rinsed filters was determined by a liquid-scintillation counter.

Inhibition % of ^3 H-Bradykinin binding [%]	Compound
94	CNC(=O)c1ccc(/C=C/C(=O)NCC(=O)N(C)c2ccc(C)c(COc3cccc4c3nc(C(C)=O)n4C)c2C)cc1 [15-(9) hydrochloride]
98	CNC(=O)c1ccc(/C=C/C(=O)NCC(=O)N(C)c2ccc(Cl)c(COc3cccc4c(C)c(C)oc34)c2Cl)cc1 [15-(20), 7-[2,6-Dichloro-3-[N-[4-(methylcarbamoyl)cinnamoylglycyl]-N-methylamino]benzyloxy]-2,3-dimethylbenzofuran]
99	CNC(=O)c1ccc(/C=C/C(=O)NCC(=O)N(C)c2ccc(Cl)c(COc3cccc4c3nc(C)n4C)c2Cl)cc1 [Example 7, 4-[2,6-dichloro-3-[N-methyl-N-[4-(methyl-carbamoyl)cinnamoylglycy]amino]benzyloxy]-1,2-dimethyl-1H-benzimidazole]
